Reference: US10479795B2 (Incyte Corporation, priority 2016, dated 2019)
Structures can show the parent of a compound that is named as a salt.

Key:
[1] = system: Phosphorylated Ribosomal Protein S6 (RPS6); experiment: THP-1 RPS6 ELISA Assay; format: cell-based, Human; conditions: Homo sapiens; THP-1 cells; read-out: PI3Kγ_THP1_RPS6_ELISA IC50
Description: To measure the Phosphorylated Ribosomal Protein S6 (RPS6) in cell lysates, THP-1 cells (Human Acute Monocytic Leukemia) are purchased from ATCC (Manassas, Va.) and maintained in RPMI with 10% FBS (Gibco/Life Technologies, Carlsbad, Calif.). For the assay, THP-1 cells are serum starved overnight in RPMI, then plated in RPMI (2×10^5 cells/well in 90 μL) into 96-well flat-bottom tissue culture treated plates (Corning, Corning, N.Y.), in the presence or absence of a concentration range of test compounds. Covered plates are incubated for 2 hours at 37° C., 5% CO2 then treated with or without 10 nM MCP-1 (MYBioSource, San Diego, Calif.) for 15 minutes at 37° C., 5% CO2. Plates are centrifuged at 1600 RPM and supernatants are removed. Cells are lysed in Lysis Buffer (Cell Signaling, Danvers, Mass.) with Protease Inhibitor (Calbiochem/EMD, Germany), PMSF (Sigma, St Louis Mo.), HALTS (Thermo Fisher, Rockford, Ill.) for 30 min on wet ice. Cell lysates are frozen at −80° C. before testing. The lysates are tested in the Human/Mouse/Rat Phospho-RPS6 ELISA (R&D Systems, Inc. Minn, Minn.). The plate is measured using a microplate reader (SpectraMax M5 —Molecular Devices, LLC Sunnyvale, Calif.) set to 450 nm with a wavelength correction of 540. IC50 determination is performed by fitting the curve of inhibitor percent inhibition versus the log of the inhibitor concentration using the GraphPad Prism 5.0 software.

[2] = target: PI3Kγ (p110γ) Recombinant Human Protein (Homo sapiens (Human), UniProt P48736); experiment: PI3K-γ Scintillation Proximity Assay; format: biochemical; conditions: read-out: PI3Kγ IC50
Outline: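 Recombinant human p110γ assayed at room temperature in 20 mM MOPS pH 6.7, 10 mM MgCl2, 5 mM DTT, 0.03% CHAPS, 2% DMSO, with 20 μM PIP2 and 2 μM ATP plus [γ-33P]ATP. Product captured on WGA SPA beads overnight and counted; IC50 fitted from % of solvent-control activity versus log inhibitor concentration.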

[3] = target: PI3Kδ (p110δ/p85α) Recombinant Human Protein (Homo sapiens (Human), UniProt O00329); experiment: PI3Kδ Scintillation Proximity Assay; format: biochemical
Outline: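 Kinase reaction run at room temperature in 20 mM MOPS pH 6.7, 10 mM MgCl2, 5 mM DTT, 0.03% CHAPS with 20 μM PIP2, 2 μM ATP plus [γ-33P]ATP, 3.4 nM enzyme, 2% DMSO; 120 min. Quenched with WGA SPA beads/EDTA, counted by scintillation; IC50 from % solvent-control activity vs log concentration.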

PI3Kγ (p110γ) Recombinant Human Protein, sequence (P48736 whole entry): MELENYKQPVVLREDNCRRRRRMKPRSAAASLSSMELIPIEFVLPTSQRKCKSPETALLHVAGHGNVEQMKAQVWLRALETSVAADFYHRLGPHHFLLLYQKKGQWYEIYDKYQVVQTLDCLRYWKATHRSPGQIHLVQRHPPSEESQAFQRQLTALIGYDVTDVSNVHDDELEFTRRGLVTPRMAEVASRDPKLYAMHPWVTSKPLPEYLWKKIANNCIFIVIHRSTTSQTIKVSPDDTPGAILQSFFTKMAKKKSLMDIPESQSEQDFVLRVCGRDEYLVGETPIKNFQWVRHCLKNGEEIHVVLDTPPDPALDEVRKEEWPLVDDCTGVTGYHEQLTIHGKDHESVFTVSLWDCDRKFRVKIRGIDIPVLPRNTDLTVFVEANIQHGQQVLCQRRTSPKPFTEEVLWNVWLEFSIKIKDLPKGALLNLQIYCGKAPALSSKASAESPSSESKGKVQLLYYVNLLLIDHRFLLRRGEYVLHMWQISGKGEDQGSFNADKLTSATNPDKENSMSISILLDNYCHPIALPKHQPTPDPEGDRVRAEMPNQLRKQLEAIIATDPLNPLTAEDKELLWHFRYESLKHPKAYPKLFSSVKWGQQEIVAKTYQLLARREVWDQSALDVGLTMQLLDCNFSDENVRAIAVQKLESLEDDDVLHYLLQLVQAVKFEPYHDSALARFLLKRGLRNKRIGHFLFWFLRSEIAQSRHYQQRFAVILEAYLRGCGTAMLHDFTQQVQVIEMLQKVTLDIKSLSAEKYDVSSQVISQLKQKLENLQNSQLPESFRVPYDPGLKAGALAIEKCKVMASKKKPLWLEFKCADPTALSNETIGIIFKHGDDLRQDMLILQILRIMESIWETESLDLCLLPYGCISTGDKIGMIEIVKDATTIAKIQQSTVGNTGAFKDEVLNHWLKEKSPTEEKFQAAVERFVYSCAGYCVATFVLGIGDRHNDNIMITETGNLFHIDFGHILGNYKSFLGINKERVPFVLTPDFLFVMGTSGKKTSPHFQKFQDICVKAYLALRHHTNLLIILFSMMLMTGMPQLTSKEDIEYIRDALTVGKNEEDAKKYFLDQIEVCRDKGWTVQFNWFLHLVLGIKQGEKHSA
PI3Kδ (p110δ/p85α) Recombinant Human Protein, sequence (O00329 whole entry): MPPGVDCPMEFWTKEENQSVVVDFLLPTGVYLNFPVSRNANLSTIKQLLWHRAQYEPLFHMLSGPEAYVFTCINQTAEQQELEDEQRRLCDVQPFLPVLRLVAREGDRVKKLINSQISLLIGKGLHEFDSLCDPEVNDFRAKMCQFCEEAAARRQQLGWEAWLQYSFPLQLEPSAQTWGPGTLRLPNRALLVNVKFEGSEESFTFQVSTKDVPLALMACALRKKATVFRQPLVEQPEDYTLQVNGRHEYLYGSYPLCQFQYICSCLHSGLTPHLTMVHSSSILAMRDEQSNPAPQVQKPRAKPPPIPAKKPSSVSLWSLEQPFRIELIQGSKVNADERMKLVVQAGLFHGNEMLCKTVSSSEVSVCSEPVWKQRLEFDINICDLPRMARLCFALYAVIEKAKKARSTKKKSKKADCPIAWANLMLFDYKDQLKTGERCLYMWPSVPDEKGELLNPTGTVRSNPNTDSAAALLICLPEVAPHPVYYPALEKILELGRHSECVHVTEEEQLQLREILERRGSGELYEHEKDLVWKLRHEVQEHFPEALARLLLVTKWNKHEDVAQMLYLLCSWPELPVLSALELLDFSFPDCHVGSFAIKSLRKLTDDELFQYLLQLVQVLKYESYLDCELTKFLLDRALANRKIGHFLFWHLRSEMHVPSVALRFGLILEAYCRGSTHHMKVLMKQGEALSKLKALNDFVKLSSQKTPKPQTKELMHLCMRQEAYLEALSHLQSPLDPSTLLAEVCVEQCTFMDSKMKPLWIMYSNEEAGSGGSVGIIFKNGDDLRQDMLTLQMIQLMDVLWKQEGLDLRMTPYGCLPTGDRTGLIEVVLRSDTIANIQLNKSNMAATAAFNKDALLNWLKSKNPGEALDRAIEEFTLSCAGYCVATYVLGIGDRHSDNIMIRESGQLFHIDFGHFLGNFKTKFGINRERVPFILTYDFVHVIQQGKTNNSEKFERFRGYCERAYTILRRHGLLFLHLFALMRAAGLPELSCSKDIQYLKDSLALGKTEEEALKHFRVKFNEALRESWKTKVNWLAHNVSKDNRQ
PI3Kδ (p110δ/p85α) Recombinant Human Protein, sequence (P27986 whole entry partner): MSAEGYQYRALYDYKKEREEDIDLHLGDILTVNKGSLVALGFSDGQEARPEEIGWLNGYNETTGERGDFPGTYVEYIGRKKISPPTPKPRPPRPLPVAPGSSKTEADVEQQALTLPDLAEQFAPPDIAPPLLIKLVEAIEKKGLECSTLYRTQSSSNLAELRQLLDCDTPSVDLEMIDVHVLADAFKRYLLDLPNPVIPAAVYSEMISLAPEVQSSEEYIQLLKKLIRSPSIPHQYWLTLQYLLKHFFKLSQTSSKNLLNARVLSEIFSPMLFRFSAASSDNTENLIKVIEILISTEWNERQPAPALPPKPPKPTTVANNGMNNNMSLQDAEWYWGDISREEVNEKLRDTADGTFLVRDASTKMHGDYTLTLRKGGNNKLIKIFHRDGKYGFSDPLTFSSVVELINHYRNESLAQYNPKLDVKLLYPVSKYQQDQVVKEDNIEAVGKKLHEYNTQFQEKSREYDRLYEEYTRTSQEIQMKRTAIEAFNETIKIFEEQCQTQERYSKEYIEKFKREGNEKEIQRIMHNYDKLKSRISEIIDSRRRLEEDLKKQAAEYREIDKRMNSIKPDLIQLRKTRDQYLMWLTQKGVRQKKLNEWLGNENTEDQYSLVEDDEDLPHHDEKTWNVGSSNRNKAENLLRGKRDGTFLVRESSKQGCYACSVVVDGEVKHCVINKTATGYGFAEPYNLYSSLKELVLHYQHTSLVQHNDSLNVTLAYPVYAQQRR

Compound	IC50 [1] [nM]	IC50 [2] [nM]	IC50 [3] [nM]
Cc1ccc(S(=O)(=O)N[C@H]2CC[C@H](O)CC2)cc1-c1cnc2c(N)cc(-c3ccnn3C)cn12 [Example 10, 3-[8-Amino-6-(1-methyl-1H-pyrazol-5-yl)imidazo[1,2-a]pyridin-3-yl]-N-(trans-4-hydroxycyclohexyl)-4-methylbenzenesulfonamide bis(trifluoroacetate)]	> 1000	< 100	100 to 500
Cc1ccc(S(=O)(=O)N[C@H]2CC[C@H](O)CC2)cc1-c1cnc2c(N)c(Cl)ccn12 [Example 11, 3-(8-Amino-7-chloroimidazo[1,2-a]pyridin-3-yl)-N-(trans-4-hydroxycyclohexyl)-4-methylbenzenesulfonamide trifluoroacetate]	< 100	< 100	500 to 2000
Cc1ccc(S(=O)(=O)N[C@H]2CC[C@H](O)CC2)cc1-c1cnc2c(N)c(-c3cnn(C)c3)ccn12 [Example 12, 3-[8-Amino-7-(1-methyl-1H-pyrazol-4-yl)imidazo[1,2-a]pyridin-3-yl]-N-(trans-4-hydroxycyclohexyl)-4-methylbenzenesulfonamide]	100 to 500	< 100	100 to 500
Cc1ccc(S(=O)(=O)N[C@H]2CC[C@H](O)CC2)cc1-c1cnc2c(N)nccn12 [Example 13, 3-(8-Aminoimidazo[1,2-a]pyrazin-3-yl)-N-(trans-4-hydroxycyclohexyl)-4-methylbenzenesulfonamide]	100 to 500	< 100	100 to 500
CCS(=O)(=O)Nc1cc(-c2cnc3c(N)nccn23)cnc1F [Example 14, N-[5-(8-Aminoimidazo[1,2-a]pyrazin-3-yl)-2-fluoropyridin-3-yl]ethanesulfonamide bis(trifluoroacetate)]	> 1000	< 100	< 100
Cc1ccc(S(=O)(=O)NCC2(C)COC2)cc1-c1cnc2c(N)nccn12 [Example 15, 3-(8-Aminoimidazo[1,2-a]pyrazin-3-yl)-4-methyl-N-[(3-methyloxetan-3-yl)methyl]benzenesulfonamide trifluoroacetate]	> 1000	< 100	500 to 2000
Cc1ccc(S(=O)(=O)N[C@H]2CC[C@H](O)CC2)cc1-c1cnc2c(N)nc(Br)cn12 [Example 16, 3-(8-Amino-6-bromoimidazo[1,2-a]pyrazin-3-yl)-N-(trans-4-hydroxycyclohexyl)-4-methylbenzenesulfonamide]	< 100	< 100	< 100

Further lines, results first:

IC50 [1] [nM]	IC50 [2] [nM]	IC50 [3] [nM]	Compound
100 to 500	< 100	100 to 500	Cc1ccccc1-c1cn2c(-c3cc(S(=O)(=O)N[C@H]4CC[C@H](O)CC4)ccc3C)cnc2c(N)n1 [Example 17, 3-[8-Amino-6-(2-methylphenyl)imidazo[1,2-a]pyrazin-3-yl]-N-(trans-4-hydroxycyclohexyl)-4-methylbenzenesulfonamide]
< 100	< 100	100 to 500	Cc1ccc(-c2cn3c(-c4cc(S(=O)(=O)N[C@H]5CC[C@H](O)CC5)ccc4C)cnc3c(N)n2)cc1 [Example 18, 3-[8-Amino-6-(4-methylphenyl)imidazo[1,2-a]pyrazin-3-yl]-N-(trans-4-hydroxycyclohexyl)-4-methylbenzenesulfonamide]
< 100	< 100	100 to 500	Cc1cccc(-c2cn3c(-c4cc(S(=O)(=O)N[C@H]5CC[C@H](O)CC5)ccc4C)cnc3c(N)n2)c1 [Example 19, 3-[8-Amino-6-(3-methylphenyl)imidazo[1,2-a]pyrazin-3-yl]-N-(trans-4-hydroxycyclohexyl)-4-methylbenzenesulfonamide]
< 100	< 100	< 100	Cc1ccc(S(=O)(=O)N[C@H]2CC[C@H](O)CC2)cc1-c1cnc2c(N)nc(-c3ccc(F)cc3)cn12 [Example 20, 3-[8-Amino-6-(4-fluorophenyl)imidazo[1,2-a]pyrazin-3-yl]-N-(trans-4-hydroxycyclohexyl)-4-methylbenzenesulfonamide]
